Patent US7972798B2, “Method for identifying diabetic patients at increased risk for pathological complications” (The United States of America as represented by the …, priority 2007, dated 2011)
Entries after “also recorded” stand apart in the source; their conditions may differ.

Tests used:
Bovine endothelial cells = experiment: Apoptosis assay (Hoechst 33342 / propidium iodide) in endothelial cells; type: cell-based
Experimental: Apoptosis Assay. Endothelial cells were cultured in 24-well plates to reach ˜90% confluence. Purified IgG was added directly to cultured medium. At 0, 6, 12, 18 and 24 hours, culture media was removed and the cells were incubated in a balanced salt solution (BSS) (140 mM NaCl, 2.8 mM KCl, 2 mM CaCl2, 2 mM MgCl2, 10 mM HEPES, pH 7.2) containing propidium iodide (PI, 25 μg/ml) and Hoechst 33342 (10 μM, Sigma) for 15 min. The cells were examined by Zeiss Axiovert 200M microscope using 20× objective (NA 0.4) for phase contrast, fluorescent blue (Hoechst) and red (PI) images. As a membrane permeable dye, Hoechst stains all nuclei with bright blue, while cell impermeable PI only stains the nuclei in the dying cells, which lost their membrane integrity. Early apoptotic cells whose membranes are still intact present only blue nuclei, but the initiation of DNA fragmentation result in patched labeling of the nuclei by Hoechst (14). Cells entering the late apoptotic stage have bright red condensed chromatin or fragmented nuclei that distinguish them from necrotic ones, which have a uniform red color usually with enlarged nuclei. For each experiment, a minimum of total 400 cells for each duplicated sample were counted from at least five randomly chosen fields and the percentage of total apoptotic cells was obtained by adding early and late apoptotic cells. Each experiment was repeated at least three times.

endothelial cells = experiment: F-actin stress fiber formation in endothelial cells (phalloidin staining); type: cell-based, bovine; conditions: co-incubation, 10 uM
Experimental: For bright field images, the ˜90% confluent endothelial cells in 24-well plates with various treatments were visualized under Zeiss Axiovert 200 inverted microscope with phase contrast 20× dry lens (NA 0.4). Alternatively, the cells cultured in glass-bottom dishes were monitored under transmission light mode (DIC images) with Zeiss LSM510 META confocal microscope with 63×, water immersion lens (NA 1.2). The live cell DIC images of the endothelial cells were captured continuously up to 15 minutes at room temperature at the speed of about 1 frame/min. For fluorescence images, the cells were cultured on glass-bottom dishes for two days before the experiments. At indicated time point after addition of autoantibodies, 10 μM Hoechst dye 33342 (Sigma Inc., St Louis, Mo.) was added into the culture medium for 15 min at 37° C. in a dark chamber. As described previously, the chromatin condensation and fragmentation was visualized with the Zeiss confocal laser scanning microscope using a 63× water immersion objective, with the excitation wavelength set at 351 nm and the emission filter set at 385-470 nm. We used Texas Red-labeled phalloidin to visualize actin stress fibers. First, we aseptically inserted glass coverslips (12-mm diameter) into 24-well tissue culture plate. […]

[1] = test system: rat pheochromocytoma (PC12) cells; experiment: bFGF-induced neurite outgrowth assay in PC12 cells; type: cell-based
Experimental: Undifferentiated rat PC12 cells were obtained from American Type Culture Collection (Rockville, Md.) and plated at low density in 60 mm dishes. Three groups of 25-50 cells/dish were counted at baseline and at 3 days and 8 days after the addition of test patient protein-A eluate fractions (1:50 or 1:100 dilutions corresponding to 1-30 ug/mL protein). Neurite outgrowth represents the percentage of PC12 cells expressing more than one neurite. A neurite is defined as a cell process that is at least 2 cell diameters in length. Results represent the mean±SD of triplicate determinations in each test fraction.
Undifferentiated rat PC12 cells obtained from the ATCC were plated at low density. Groups of 25-50 cells/dish were counted at baseline and at 3 and 8 days after exposure to 10 ng/mL basic fibroblast growth factor in the presence or absence of test diabetic plasma IgG fractions and Y27632. Results represent triplicate determinations for each test fraction.

C[C@@H](N)[C@H]1CC[C@H](C(=O)Nc2ccncc2)CC1 [Patient Y27632, Y27632]
inhibition of endothelial cell apoptosis from one diabetic IgG fraction (Bovine endothelial cells; 10 uM, n=3 experiments): partially inhibited
inhibition of autoantibody-induced stress fiber formation (endothelial cells): largely inhibited
restoration of bFGF-induced neurite outgrowth in presence of blocking autoantibodies ([1]; Y27632 1 uM, bFGF 10 ng/mL, autoantibodies from three diabetic patients): completely restored neurite outgrowth
restoration of bFGF-induced neurite outgrowth in presence of blocking autoantibodies ([1]; co-incubation, concentration not stated): abolished; also recorded: neutralization of inhibition; also recorded: reversal
restoration of bFGF-induced neurite outgrowth in presence of blocking autoantibodies ([1]; co-incubation, concentration not stated, listed as Y-27632): completely restored

CC(C)[C@H](NC(=O)c1ccc2ccccc2n1)C(=O)N[C@@H](CC(=O)O)C(=O)COc1c(F)cccc1F [Q-VD-OPH]
block of apoptosis in cells exposed to IgG from patient #2 (Bovine endothelial cells; 10 μM, 12 hours): almost completely blocked apoptosis
block of apoptosis in cells exposed to diabetic plasma IgG (Bovine endothelial cells; concentration not given): nearly completely blocked apoptosis

bFGF: Recombinant human bFGF from Austral Biologicals
rescue or prevention of eluate-induced apoptosis (Bovine endothelial cells; 100 pg/mL bFGF co-incubated with 4-30 ug/mL active protein-A eluate from 5 of 5 diabetic maculopathy plasmas, preliminary): did not rescue or prevent apoptosis
